Laboratory results as given in PubChem BioAssay AID2060500 (Molecular Pharmacology Branch, DTP, NCI, 2025).

System: 596521-263-R-J1-PDC complex spheroids, viability % of control
Experiment: Anticancer human tumor 596521-263-R-J1-PDC patient-derived soft tissue sarcoma cell line growth inhibition [GQUAD]
Conditions: for IC50: curve of first compound; for viability, T/C: stronger effect = lower value
Summary of the method: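 Viability of tumor cells grown as complex spheroids with endothelial and stromal cells, exposed to drug combinations. Top concentration at or near clinical Cmax (else 10 microM), diluted in half-log increments.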

[1] = second compound 0.0316 µM, first compound 0.0316 µM
[2] = second compound 0.0316 µM, first compound 0.316 µM
[3] = second compound 0.1 µM, first compound 0.0316 µM
[4] = second compound 0.1 µM, first compound 0.316 µM
[5] = second compound 0.316 µM, first compound 0.0316 µM
[6] = second compound 0.316 µM, first compound 0.316 µM
[7] = second compound 1 µM, first compound 0.0316 µM
[8] = second compound 1 µM, first compound 0.316 µM
[9] = second compound 3.16 µM, first compound 0.0316 µM
[10] = second compound 3.16 µM, first compound 0.316 µM
[11] = second compound 10 µM, first compound 0.0316 µM
[12] = second compound 10 µM, first compound 0.316 µM
[13] = second compound 0.0316 µM, first compound 0.1 µM
[14] = second compound 0.0316 µM, first compound 1 µM
[15] = second compound 0.0316 µM, first compound 3.16 µM
[16] = second compound 0.0316 µM, first compound 10 µM
[17] = second compound 0.1 µM, first compound 0.1 µM
[18] = second compound 0.1 µM, first compound 1 µM
[19] = second compound 0.1 µM, first compound 3.16 µM
[20] = second compound 0.1 µM, first compound 10 µM
[21] = second compound 0.316 µM, first compound 0.1 µM
[22] = second compound 0.316 µM, first compound 1 µM
[23] = second compound 0.316 µM, first compound 3.16 µM
[24] = second compound 0.316 µM, first compound 10 µM
[25] = second compound 1 µM, first compound 0.1 µM
[26] = second compound 1 µM, first compound 1 µM
[27] = second compound 1 µM, first compound 3.16 µM
[28] = second compound 1 µM, first compound 10 µM
[29] = second compound 3.16 µM, first compound 0.1 µM
[30] = second compound 3.16 µM, first compound 1 µM
[31] = second compound 3.16 µM, first compound 3.16 µM
[32] = second compound 3.16 µM, first compound 10 µM
[33] = second compound 10 µM, first compound 0.1 µM
[34] = second compound 10 µM, first compound 1 µM
[35] = second compound 10 µM, first compound 3.16 µM
[36] = second compound 10 µM, first compound 10 µM
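Also: spheroids exposed to drugs for 7 days before viability reading.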
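For viability, T/C in this document: 100% = DMSO vehicle control viability.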

Work on Cc1[nH]c2ccccc2c1CCNCc1ccc(/C=C/C(=O)NO)cc1 + Cc1cnc(CNC(=O)c2c(=O)c3ccc(N4CCCN(C)CC4)nc3n3c2sc2ccccc23)cn1 yielded an IC50 (second compound 0.0316 µM) of 44.4 nM, an IC50 (second compound 0.1 µM) of 57.5 nM and an IC50 (second compound 0.316 µM) of 49.3 nM. The IC50 (second compound 1 µM) was 39.4 nM, the IC50 (second compound 3.16 µM) was 18.5 nM and the IC50 (second compound 10 µM) was under 0.999 nM. It also gave a viability, T/C (second compound 0.0316 µM, first compound 0.000999 µM) of 103%, a viability, T/C (second compound 0.0316 µM, first compound 0.00316 µM) of 88.9% and a viability, T/C (second compound 0.0316 µM, first compound 0.00999 µM) of 83.1%. The viability, T/C [1] was 58.4%, the viability, T/C (second compound 0.0316 µM, first compound 0.0999 µM) was 29.2% and the viability, T/C [2] was 2%. For the same molecule, the viability, T/C (second compound 0.1 µM, first compound 0.000999 µM) was 99.9%, the viability, T/C (second compound 0.1 µM, first compound 0.00316 µM) was 81.8% and the viability, T/C (second compound 0.1 µM, first compound 0.00999 µM) was 79.7%. For the same molecule, the viability, T/C [3] was 61.8%, the viability, T/C (second compound 0.1 µM, first compound 0.0999 µM) was 40.6% and the viability, T/C [4] was 2.65%. The viability, T/C (second compound 0.316 µM, first compound 0.000999 µM) was 83.2%, the viability, T/C (second compound 0.316 µM, first compound 0.00316 µM) was 73.9% and the viability, T/C (second compound 0.316 µM, first compound 0.00999 µM) was 67.8%. For the same molecule, the viability, T/C [5] was 63.3%, the viability, T/C (second compound 0.316 µM, first compound 0.0999 µM) was 34.3% and the viability, T/C [6] was 2.74%. It also gave a viability, T/C (second compound 1 µM, first compound 0.000999 µM) of 65.2%, a viability, T/C (second compound 1 µM, first compound 0.00316 µM) of 67.5% and a viability, T/C (second compound 1 µM, first compound 0.00999 µM) of 67.8%. The viability, T/C [7] was 48%, the viability, T/C (second compound 1 µM, first compound 0.0999 µM) was 36.8% and the viability, T/C [8] was 0.29%. It also gave a viability, T/C (second compound 3.16 µM, first compound 0.000999 µM) of 49.9%, a viability, T/C (second compound 3.16 µM, first compound 0.00316 µM) of 54.4% and a viability, T/C (second compound 3.16 µM, first compound 0.00999 µM) of 54%. For the same molecule, the viability, T/C [9] was 47.4%, the viability, T/C (second compound 3.16 µM, first compound 0.0999 µM) was 30.5% and the viability, T/C [10] was 0.21%. It also gave a viability, T/C (second compound 10 µM, first compound 0.000999 µM) of 41.9%, a viability, T/C (second compound 10 µM, first compound 0.00316 µM) of 19.3% and a viability, T/C (second compound 10 µM, first compound 0.00999 µM) of 43.1%. The viability, T/C [11] was 37.8%, the viability, T/C (second compound 10 µM, first compound 0.0999 µM) was 0.34% and the viability, T/C [12] was 0.24%.
O=C(NO)c1cnc(N2CCN(S(=O)(=O)c3ccc4ccccc4c3)CC2)nc1 + Cc1cnc(CNC(=O)c2c(=O)c3ccc(N4CCCN(C)CC4)nc3n3c2sc2ccccc23)cn1 was tested, and the IC50 (second compound 0.0316 µM) was 111 nM, the IC50 (second compound 0.1 µM) was 102 nM and the IC50 (second compound 0.316 µM) was 110 nM. It also gave an IC50 (second compound 1 µM) of 104 nM, an IC50 (second compound 3.16 µM) of under 31.6 nM and an IC50 (second compound 10 µM) of under 31.6 nM. It also gave a viability, T/C [1] of 74.7%, a viability, T/C [13] of 53.5% and a viability, T/C [2] of 13%. It also gave a viability, T/C [14] of 0.6%, a viability, T/C [15] of 0.3% and a viability, T/C [16] of 0.28%. For the same molecule, the viability, T/C [3] was 71.5%, the viability, T/C [17] was 50.3% and the viability, T/C [4] was 17.4%. It also gave a viability, T/C [18] of 0.78%, a viability, T/C [19] of 0.32% and a viability, T/C [20] of 0.29%. The viability, T/C [5] was 66.5%, the viability, T/C [21] was 52.4% and the viability, T/C [6] was 19.1%. It also gave a viability, T/C [22] of 0.46%, a viability, T/C [23] of 0.21% and a viability, T/C [24] of 0.18%. For the same molecule, the viability, T/C [7] was 53.9%, the viability, T/C [25] was 50.6% and the viability, T/C [8] was 19.6%. It also gave a viability, T/C [26] of 0.17%, a viability, T/C [27] of 0.77% and a viability, T/C [28] of 1.29%. It also gave a viability, T/C [9] of 48.6%, a viability, T/C [29] of 42.5% and a viability, T/C [10] of 16.1%. The viability, T/C [30] was 0.13%, the viability, T/C [31] was 0.4% and the viability, T/C [32] was 0.75%. It also gave a viability, T/C [11] of 23.6%, a viability, T/C [33] of 13.2% and a viability, T/C [12] of 0.25%. The viability, T/C [34] was 0.16%, the viability, T/C [35] was 0.89% and the viability, T/C [36] was 0.27%.
O=c1[nH]cc(F)c(=O)[nH]1 + Cc1cnc(CNC(=O)c2c(=O)c3ccc(N4CCCN(C)CC4)nc3n3c2sc2ccccc23)cn1 was tested, and the IC50 (second compound 0.0316 µM) was over 10000 nM, the IC50 (second compound 0.1 µM) was over 10000 nM and the IC50 (second compound 0.316 µM) was over 10000 nM. It also gave an IC50 (second compound 1 µM) of over 10000 nM, an IC50 (second compound 3.16 µM) of over 10000 nM and an IC50 (second compound 10 µM) of under 31.6 nM. It also gave a viability, T/C [1] of 109%, a viability, T/C [13] of 112% and a viability, T/C [2] of 100%. For the same molecule, the viability, T/C [14] was 99.7%, the viability, T/C [15] was 111% and the viability, T/C [16] was 84.7%. The viability, T/C [3] was 100%, the viability, T/C [17] was 84.9% and the viability, T/C [4] was 89.4%. For the same molecule, the viability, T/C [18] was 88.5%, the viability, T/C [19] was 104% and the viability, T/C [20] was 87.4%. It also gave a viability, T/C [5] of 78.9%, a viability, T/C [21] of 82.8% and a viability, T/C [6] of 69.5%. The viability, T/C [22] was 72.5%, the viability, T/C [23] was 82.7% and the viability, T/C [24] was 76.7%. It also gave a viability, T/C [7] of 68.2%, a viability, T/C [25] of 66% and a viability, T/C [8] of 71.3%. For the same molecule, the viability, T/C [26] was 72.2%, the viability, T/C [27] was 76% and the viability, T/C [28] was 69.9%. For the same molecule, the viability, T/C [9] was 54.8%, the viability, T/C [29] was 59.9% and the viability, T/C [10] was 51.3%. It also gave a viability, T/C [30] of 49.8%, a viability, T/C [31] of 63.2% and a viability, T/C [32] of 51.4%. For the same molecule, the viability, T/C [11] was 49%, the viability, T/C [33] was 49.6% and the viability, T/C [12] was 49.2%. It also gave a viability, T/C [34] of 49.4%, a viability, T/C [35] of 54.7% and a viability, T/C [36] of 47.6%.
